# From patent US10765114B2, “4-amino-6-(pyridyl and 2-substitutedphenyl)-picolinates and 6-amino-2-(pyridyl and 2-substitutedphenyl)-pyrimidine-4-carboxylates and their use as herbicides” (Dow AgroSciences LLC, priority 2013, dated 2020)
# Tested on: Key Grass and Sedge Weeds as well as Grass Crops
# Test: Post-Emergent Test II (Table 6)
# Format: in vivo
# Details: post-emergence, 336 h, ZEAMX: maize, corn (Zea mays), 70 g ai/ha, 14 days after application, read-out: Visual Growth Reduction (%) 14 Days After Application ZEAMX
# Method in brief: (§1)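 Growth stage at treatment: first or second true leaf. Application: compound in acetone/DMSO diluted into an adjuvant-containing aqueous mix, sprayed at 187 L/ha at several rates. Assessment: visual 0-100% injury at 14 days against untreated plants.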
row,SMILES,pest or weed control at 70 g/ha
1,"Cc1c(F)c(Cl)cc(F)c1-c1cc(N)c(Cl)c(C(=O)O)n1 [Compound 92, 4-amino-3-chloro-6-(4-chloro-3,6-difluoro-2-methylphenyl)picolinic acid]",0 to 29%

# Same assay, conditions: post-emergence, 336 h, ZEAMX: maize, corn (Zea mays), 140 g ai/ha, 14 days after application, read-out: Visual Growth Reduction (%) 14 Days After Application ZEAMX
row,SMILES,pest or weed control at 140 g/ha
1,"Cc1c(F)c(Cl)cc(F)c1-c1cc(N)c(Cl)c(C(=O)O)n1 [Compound 92, 4-amino-3-chloro-6-(4-chloro-3,6-difluoro-2-methylphenyl)picolinic acid]",0 to 29%

# Tested on: Key Broadleaf Weed and Crop Species
# Test: Post-Emergent Test II (Table 5)
# Format: in vivo
# Details: Abutilon theophrasti, post-emergence, 336 h, ABUTH: velvetleaf (Abutilon theophrasti), application rate 70 (kg ai/ha; footnote: g ai/ha), read-out: Visual Growth Reduction (%) 14 Days After Application ABUTH
# Method in brief: as §1
row,SMILES,pest or weed control at 70 g/ha
1,"Cc1c(F)c(Cl)cc(F)c1-c1cc(N)c(Cl)c(C(=O)O)n1 [Compound 92, 4-amino-3-chloro-6-(4-chloro-3,6-difluoro-2-methylphenyl)picolinic acid]",95 to 100%

# Same assay, conditions: Abutilon theophrasti, post-emergence, 336 h, ABUTH: velvetleaf (Abutilon theophrasti), application rate 140 (kg ai/ha; footnote: g ai/ha), read-out: Visual Growth Reduction (%) 14 Days After Application ABUTH
row,SMILES,pest or weed control at 140 g/ha
1,"Cc1c(F)c(Cl)cc(F)c1-c1cc(N)c(Cl)c(C(=O)O)n1 [Compound 92, 4-amino-3-chloro-6-(4-chloro-3,6-difluoro-2-methylphenyl)picolinic acid]",95 to 100%

# Same assay, conditions: Amaranthus retroflexus, post-emergence, 336 h, AMARE: redroot pigweed (Amaranthus retroflexus), application rate 70 (kg ai/ha; footnote: g ai/ha), read-out: Visual Growth Reduction (%) 14 Days After Application AMARE
row,SMILES,pest or weed control at 70 g/ha
1,"Cc1c(F)c(Cl)cc(F)c1-c1cc(N)c(Cl)c(C(=O)O)n1 [Compound 92, 4-amino-3-chloro-6-(4-chloro-3,6-difluoro-2-methylphenyl)picolinic acid]",95 to 100%

# Same assay, conditions: Amaranthus retroflexus, post-emergence, 336 h, AMARE: redroot pigweed (Amaranthus retroflexus), application rate 140 (kg ai/ha; footnote: g ai/ha), read-out: Visual Growth Reduction (%) 14 Days After Application AMARE
row,SMILES,pest or weed control at 140 g/ha
1,"Cc1c(F)c(Cl)cc(F)c1-c1cc(N)c(Cl)c(C(=O)O)n1 [Compound 92, 4-amino-3-chloro-6-(4-chloro-3,6-difluoro-2-methylphenyl)picolinic acid]",95 to 100%

# Same assay, conditions: Brassica napus, post-emergence, 336 h, BRSSS: oilseed rape, canola (Brassica napus), application rate 70 (kg ai/ha; footnote: g ai/ha), read-out: Visual Growth Reduction (%) 14 Days After Application BRSSS
row,SMILES,pest or weed control at 70 g/ha
1,"Cc1c(F)c(Cl)cc(F)c1-c1cc(N)c(Cl)c(C(=O)O)n1 [Compound 92, 4-amino-3-chloro-6-(4-chloro-3,6-difluoro-2-methylphenyl)picolinic acid]",95 to 100%

# Same assay, conditions: Brassica napus, post-emergence, 336 h, BRSSS: oilseed rape, canola (Brassica napus), application rate 140 (kg ai/ha; footnote: g ai/ha), read-out: Visual Growth Reduction (%) 14 Days After Application BRSSS
row,SMILES,pest or weed control at 140 g/ha
1,"Cc1c(F)c(Cl)cc(F)c1-c1cc(N)c(Cl)c(C(=O)O)n1 [Compound 92, 4-amino-3-chloro-6-(4-chloro-3,6-difluoro-2-methylphenyl)picolinic acid]",95 to 100%

# Same assay, conditions: Chenopodium album, post-emergence, 336 h, CHEAL: lambsquarters (Chenopodium album), application rate 70 (kg ai/ha; footnote: g ai/ha), read-out: Visual Growth Reduction (%) 14 Days After Application CHEAL
row,SMILES,pest or weed control at 70 g/ha
1,"Cc1c(F)c(Cl)cc(F)c1-c1cc(N)c(Cl)c(C(=O)O)n1 [Compound 92, 4-amino-3-chloro-6-(4-chloro-3,6-difluoro-2-methylphenyl)picolinic acid]",95 to 100%

# Same assay, conditions: Chenopodium album, post-emergence, 336 h, CHEAL: lambsquarters (Chenopodium album), application rate 140 (kg ai/ha; footnote: g ai/ha), read-out: Visual Growth Reduction (%) 14 Days After Application CHEAL
row,SMILES,pest or weed control at 140 g/ha
1,"Cc1c(F)c(Cl)cc(F)c1-c1cc(N)c(Cl)c(C(=O)O)n1 [Compound 92, 4-amino-3-chloro-6-(4-chloro-3,6-difluoro-2-methylphenyl)picolinic acid]",95 to 100%

# Same assay, conditions: Euphorbia heterophylla, post-emergence, 336 h, EPHHL: wild poinsettia (Euphorbia heterophylla), application rate 70 (kg ai/ha; footnote: g ai/ha), read-out: Visual Growth Reduction (%) 14 Days After Application EPHHL
row,SMILES,pest or weed control at 70 g/ha
1,"Cc1c(F)c(Cl)cc(F)c1-c1cc(N)c(Cl)c(C(=O)O)n1 [Compound 92, 4-amino-3-chloro-6-(4-chloro-3,6-difluoro-2-methylphenyl)picolinic acid]",0 to 29%

# Same assay, conditions: Euphorbia heterophylla, post-emergence, 336 h, EPHHL: wild poinsettia (Euphorbia heterophylla), application rate 140 (kg ai/ha; footnote: g ai/ha), read-out: Visual Growth Reduction (%) 14 Days After Application EPHHL
row,SMILES,pest or weed control at 140 g/ha
1,"Cc1c(F)c(Cl)cc(F)c1-c1cc(N)c(Cl)c(C(=O)O)n1 [Compound 92, 4-amino-3-chloro-6-(4-chloro-3,6-difluoro-2-methylphenyl)picolinic acid]",30 to 44%

# Same assay, conditions: Helianthus annuus, post-emergence, 336 h, HELAN: sunflower (Helianthus annuus), application rate 70 (kg ai/ha; footnote: g ai/ha), read-out: Visual Growth Reduction (%) 14 Days After Application HELAN
row,SMILES,pest or weed control at 70 g/ha
1,"Cc1c(F)c(Cl)cc(F)c1-c1cc(N)c(Cl)c(C(=O)O)n1 [Compound 92, 4-amino-3-chloro-6-(4-chloro-3,6-difluoro-2-methylphenyl)picolinic acid]",95 to 100%

# Same assay, conditions: Helianthus annuus, post-emergence, 336 h, HELAN: sunflower (Helianthus annuus), application rate 140 (kg ai/ha; footnote: g ai/ha), read-out: Visual Growth Reduction (%) 14 Days After Application HELAN
row,SMILES,pest or weed control at 140 g/ha
1,"Cc1c(F)c(Cl)cc(F)c1-c1cc(N)c(Cl)c(C(=O)O)n1 [Compound 92, 4-amino-3-chloro-6-(4-chloro-3,6-difluoro-2-methylphenyl)picolinic acid]",95 to 100%

# Same assay, conditions: Viola tricolor, post-emergence, 336 h, VIOTR: wild pansy (Viola tricolor), application rate 70 (kg ai/ha; footnote: g ai/ha), read-out: Visual Growth Reduction (%) 14 Days After Application VIOTR
row,SMILES,pest or weed control at 70 g/ha
1,"Cc1c(F)c(Cl)cc(F)c1-c1cc(N)c(Cl)c(C(=O)O)n1 [Compound 92, 4-amino-3-chloro-6-(4-chloro-3,6-difluoro-2-methylphenyl)picolinic acid]",60 to 74%

# Same assay, conditions: Viola tricolor, post-emergence, 336 h, VIOTR: wild pansy (Viola tricolor), application rate 140 (kg ai/ha; footnote: g ai/ha), read-out: Visual Growth Reduction (%) 14 Days After Application VIOTR
row,SMILES,pest or weed control at 140 g/ha
1,"Cc1c(F)c(Cl)cc(F)c1-c1cc(N)c(Cl)c(C(=O)O)n1 [Compound 92, 4-amino-3-chloro-6-(4-chloro-3,6-difluoro-2-methylphenyl)picolinic acid]",75 to 84%
